Measured values taken from PMC8234864, “Early Effects of the Soluble Amyloid β25-35 Peptide in Rat Cortical Neurons: Modulation of Signal Transduction Mediated by Adenosine and Group I Metabotropic Glutamate Receptors” (International Journal of Molecular Sciences, 2021).
Several values for one entry are separate records, joined by “and”; a condition that tells them apart may be missing. Identical values can stand only once. Where no end group is shown, it is not given here.

Experiments:
Type in all cases: cell-based, rat
[1] = test system: Group I mGluR/PLC signalling pathway; test: Phospholipase C activity (IP3 accumulation), basal and DHPG-stimulated
Procedure: This method was previously reported and is divided into two well-defined steps: IP3 accumulation: culture medium was discharged, and cells were washed twice with DMEM containing 20 mM HEPES, pH 7.4. After 20 min at 37 °C, different ligands were added to cells for 10 min at 37 °C to analyse their effect on PLC activity in a final reaction volume of 300 μL. The enzymatic reaction was stopped and cells lysed by adding 50 μL 2.8 M perchloric acid and placing plates on ice for 30 min. The medium was neutralized with 70 μ[…] Tris-HCl, 2 M KOH, and 60 mM EGTA, transferred to Eppendorf tubes and centrifuged at 12,000× g for 10 min. The supernatant was then collected to determine the IP3 level. IP3 level determination: IP3 levels in cells were determined as previously reported by Palmer and modified by […] [100]. Incubation of [^3H]IP3 (0.2 pmol; 3000-5000 cpm) in assay buffer (100 mM Tris-HCl, 4 mM EDTA, 4 mM EGTA, 4 mg/mL BSA, pH 9.0), binding protein (500-600 μg), and 25-50 μL of supernatant obtained from IP3 accumulation assay was carried out. Samples were incubated at 4 °C for 60 min and centrifuged at 12,000× g for 10 min. Pellets were suspended in 100 μL 0.2% SDS and transferred to scintillation vials to measure radioactivity. A standard curve was made with known [^3H]IP3 concentrations (0.25-10 μM). Nonspecific binding was determined in the presence of 10 μM unlabeled IP3. Binding protein was obtained from bovine suprarenal capsules according to Palmer's protocol.

mGluR1 = test: Extracellular immunostaining of mGluR1 in non-permeabilized neurons; conditions: 25 µM, 24 h, whole-cell immunostaining
Procedure: The quantitative analysis of the levels of Group I mGluR and mGluR2,3 at the plasma membrane was performed with extracellular targeted polyclonal antibodies (mGluR1, mGluR5 and mGluR2,3, Alomone Labs, Jerusalem, Israel), as previously described with minor modifications. Briefly, after 2 weeks in culture, the culture medium was removed and cells washed with Locke Buffer (LB, pH 7.4). Cells were then fixed with 4% paraformaldehyde for 10 min at room temperature and washed with three 10-min intervals with LB.
Nonspecific staining was suppressed by blocking with 3% normal goat serum in LB for 60 min. […]
To evaluate the degree of fluorescence intensity in cortical neurons, fluorescence was measured to estimate the protein expression in the different experimental conditions analyzed. Images (448.6 µm × 335.08 µm) obtained with a digital camera (Leica DFC350FX R2), attached to a Leica DMI6000B (Leica Microsystems, Wetzlar, Germany) fluorescent microscope, were used for quantification (20x HCX PL FLUOTAR 0.4 dry objective). […] Fluorescence intensity was estimated by averaging mean grey values. […] Data were normalized to the total number of cells in the analyzed fields. The mean fluorescence background, calculated in the unstained regions between neurons, was subtracted from the fluorescence intensity of each data point. […]

PLCβ1 gene expression = PLCβ1 gene expression by real-time RT-PCR; conditions: 25 µM
Procedure: Total RNA was extracted using an ABI 6100 Nucleic Acid PrepStation according to the manufacturer’s protocol (Applied Biosystems Inc., Foster City, CA, USA). Total RNA from cells was isolated and stored at −80 °C. The quality of isolated RNA was estimated by the ratio A260/A280 and was in the range of 1.9–2.1. RNA integrity was evaluated by agarose gel electrophoresis according to MIQE guidelines using the “bleach gel” method. RNA concentrations were determined from the A260. One microgram of total RNA was reverse transcribed using Applied Biosystems High-Capacity cDNA Archive Kit.
To assess relative gene expression in neurons, quantitative real-time RT-PCR analysis was performed with an Applied Biosystems Prism 7500 Fast Sequence Detection System using TaqMan® universal PCR master mix according to the manufacturer’s specifications. […] Levels of RNA expression were determined using the 7500 Fast System SDS software version 1.3.1 (Applied Biosystems) according to the 2^−ΔΔCt method. […] The results from three independent repeat assays, performed in different plates each using different cDNA’s from the cultures analyzed, were averaged to produce a single mean quantity value for each mRNA.

- decrease in DHPG-stimulated PLC activity ([1]; 25 µM, 24 h, 30 µM DHPG for 10 min): 13%
Sequence: GSNKGAIIGLM [Aβ25-35]
- basal PLC activity ([1]; neurons exposed to 25 µM for 24 h, unstimulated, absence of DHPG): 17.61 ± 4.85 pmol/mg/min and 17.6 ± 4.8 pmol/mg/min
- mGluR1 density at the membrane level, increase over control value (mGluR1): more than 7 fold
- PLCβ1 gene expression decrease over control value (PLCβ1 gene expression; 24 h): 28%
- PLCβ1 gene expression decrease over control value (PLCβ1 gene expression; 48 h): 33%
